The values that follow come from US20210347727A1 (BLADE THERAPEUTICS, INC., priority 2017, published 2021).

In assay [1] the test system is calpain activity in SH-SY5Y cells. Description: SH-SY5Y cellular calpain activity, Suc-LLVY-AMC fluorescence assay. The assay is classed as cell-based. The settings on record: Suc-LLVY-AMC substrate. How it is done:
Calpain activity in SH-SY5Y cells and inhibition thereof were assessed by means of a homogeneous, fluorescence assay that uses the cell-permeable and pro-fluorescent calpain substrate Suc-LLVY-AMC (Sigma-Aldrich Inc). Upon intracellular calpain cleavage of Suc-LLVY-AMC, fluorescent amino-methyl-coumarin (AMC) is released into the media resulting in a continuous increase in fluorescence signal that is proportional to intra-cellular calpain activity.
Assays were typically setup by seeding SH-SY5Y cells in black 384-well plates at 40 k/per well in RPMI-1640 containing 1% serum followed by 37 C overnight incubation. Next morning, cells were pre-incubated for 30 min with serially diluted compounds followed by addition of 100 uM of Suc-LLVY-AMC substrate. The continuous increase in AMC fluorescence is monitored using a FLIPR, Tetra plate reader (Molecular Devices Inc) and slopes measured to report calpain activity. Dose response curves (slopes vs. log inhibitor concentration) were typically fit to a 4-parameter logistic function to extract IC50 values.

A further assay has as its target T1, Human Calpain 1/NS1 (Homo sapiens, UniProt P07384).
T1 sequence (P07384 1-714): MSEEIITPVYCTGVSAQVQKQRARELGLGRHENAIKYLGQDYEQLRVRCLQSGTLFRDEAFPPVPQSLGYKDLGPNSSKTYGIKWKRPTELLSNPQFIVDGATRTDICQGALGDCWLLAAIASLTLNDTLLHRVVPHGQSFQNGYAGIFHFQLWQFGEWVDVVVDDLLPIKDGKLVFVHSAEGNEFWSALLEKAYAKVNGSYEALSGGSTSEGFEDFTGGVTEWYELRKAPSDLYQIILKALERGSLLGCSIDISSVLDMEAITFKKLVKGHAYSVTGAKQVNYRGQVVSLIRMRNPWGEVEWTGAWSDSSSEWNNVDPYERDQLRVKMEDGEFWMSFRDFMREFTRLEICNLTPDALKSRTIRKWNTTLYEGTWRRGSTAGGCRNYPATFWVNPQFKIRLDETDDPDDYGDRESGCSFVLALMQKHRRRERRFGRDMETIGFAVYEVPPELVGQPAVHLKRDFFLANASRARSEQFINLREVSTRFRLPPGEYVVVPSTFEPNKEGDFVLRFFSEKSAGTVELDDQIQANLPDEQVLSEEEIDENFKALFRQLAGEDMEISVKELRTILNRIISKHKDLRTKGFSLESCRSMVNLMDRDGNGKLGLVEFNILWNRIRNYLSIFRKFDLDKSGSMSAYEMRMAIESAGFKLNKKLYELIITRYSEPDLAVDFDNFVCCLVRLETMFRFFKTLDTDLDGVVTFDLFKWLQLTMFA
T1 sequence (P04632 1-268 partner): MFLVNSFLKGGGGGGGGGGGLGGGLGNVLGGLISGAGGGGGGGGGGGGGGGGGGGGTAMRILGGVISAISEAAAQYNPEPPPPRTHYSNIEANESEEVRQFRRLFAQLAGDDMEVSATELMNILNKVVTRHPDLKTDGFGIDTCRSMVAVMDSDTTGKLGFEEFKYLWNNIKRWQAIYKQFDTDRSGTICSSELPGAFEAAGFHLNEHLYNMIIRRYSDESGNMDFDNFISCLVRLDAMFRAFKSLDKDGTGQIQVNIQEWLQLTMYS
Description: Biochemical inhibition of calpain 1, continuous fluorescence (FRET substrate) assay. The settings on record: mean; read-out: Human Calpain 1/NS1 IC50 (nM)_MEAN. How it is done: (§1) Calpain 1, 2, and 9 activity and inhibition thereof are assessed by means of a continuous fluorescence assay. The SensoLyte 520 Calpain substrate (Anaspec Inc) is optimized for detecting calpain activity. This substrate contains a novel internally quenched 5-FAM/QXL™ 520 FRET pair. Calpains 1, 2, and 9 cleave the FRET substrate into two separate fragments resulting in an increase of 5-FAM fluorescence that is proportional to calpain activity.
(§2) Assays are typically setup in black 384-well plates using automated liquid handling as follows. Calpain assay base buffer typically contains 50 mM Tris, pH 7.5, 100 mM NaCl and 1 mM DTT. Inhibitors are serially diluted in DMSO and used to setup 2× mixtures with calpains in the aforementioned buffer. After incubation at ambient temperature (25 C), the reaction is initiated by adding a 2× mix of the fluorescent peptide substrate and CaCl2 (required for in-situ calpain activation) in the same buffer. Reaction progress curve data are typically collected for 10 min using excitation/emission wavelengths of 490 nm/520 nm on SpectraMax i3x or the FLIPR-Tetra plate readers (Molecular Devices Inc). Reaction rates were calculated from progress curve slopes typically over 1-5 min. Dose response curves (rate vs. log inhibitor concentration) were typically fit to a 4-parameter logistic function to extract IC50 values.

The target of a further assay is T2, Human Calpain 9/NS1 (Homo sapiens, UniProt O14815).
T2 sequence (O14815 1-690): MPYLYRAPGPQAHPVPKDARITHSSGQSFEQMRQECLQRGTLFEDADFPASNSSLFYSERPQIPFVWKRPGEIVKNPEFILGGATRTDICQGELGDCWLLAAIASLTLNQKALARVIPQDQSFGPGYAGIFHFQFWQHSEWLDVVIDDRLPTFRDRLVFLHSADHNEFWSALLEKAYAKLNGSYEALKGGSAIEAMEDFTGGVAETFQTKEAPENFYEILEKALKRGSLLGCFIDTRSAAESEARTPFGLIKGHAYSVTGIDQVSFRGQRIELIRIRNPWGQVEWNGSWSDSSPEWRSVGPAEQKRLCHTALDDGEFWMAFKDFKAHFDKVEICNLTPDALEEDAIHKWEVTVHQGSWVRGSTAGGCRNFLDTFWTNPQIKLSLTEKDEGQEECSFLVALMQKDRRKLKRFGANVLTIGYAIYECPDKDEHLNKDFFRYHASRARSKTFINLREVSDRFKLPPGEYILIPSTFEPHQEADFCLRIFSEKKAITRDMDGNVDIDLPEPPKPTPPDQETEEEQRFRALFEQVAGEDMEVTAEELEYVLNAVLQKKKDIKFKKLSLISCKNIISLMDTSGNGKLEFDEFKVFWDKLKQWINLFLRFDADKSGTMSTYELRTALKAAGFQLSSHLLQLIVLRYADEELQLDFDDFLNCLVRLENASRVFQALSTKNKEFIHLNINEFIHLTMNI
T2 sequence (P04632 1-268 partner): T1 sequence (P04632 1-268 partner)
Description: Biochemical inhibition of calpain 9, continuous fluorescence (FRET substrate) assay. The settings on record: mean; read-out: Human Calpain 9/NS1 IC50 (nM)_MEAN. Here is the method: as §1, §2

The subject of assay [2] is calpain activity in SH-SY5Y cells (Spectrin). Description: SH-SY5Y Spectrin cellular calpain inhibition. It is filed as cell-based.
The target in a further assay is T3, Human Calpain 2/NS1 (Homo sapiens, UniProt P17655).
T3 sequence (P17655 1-700): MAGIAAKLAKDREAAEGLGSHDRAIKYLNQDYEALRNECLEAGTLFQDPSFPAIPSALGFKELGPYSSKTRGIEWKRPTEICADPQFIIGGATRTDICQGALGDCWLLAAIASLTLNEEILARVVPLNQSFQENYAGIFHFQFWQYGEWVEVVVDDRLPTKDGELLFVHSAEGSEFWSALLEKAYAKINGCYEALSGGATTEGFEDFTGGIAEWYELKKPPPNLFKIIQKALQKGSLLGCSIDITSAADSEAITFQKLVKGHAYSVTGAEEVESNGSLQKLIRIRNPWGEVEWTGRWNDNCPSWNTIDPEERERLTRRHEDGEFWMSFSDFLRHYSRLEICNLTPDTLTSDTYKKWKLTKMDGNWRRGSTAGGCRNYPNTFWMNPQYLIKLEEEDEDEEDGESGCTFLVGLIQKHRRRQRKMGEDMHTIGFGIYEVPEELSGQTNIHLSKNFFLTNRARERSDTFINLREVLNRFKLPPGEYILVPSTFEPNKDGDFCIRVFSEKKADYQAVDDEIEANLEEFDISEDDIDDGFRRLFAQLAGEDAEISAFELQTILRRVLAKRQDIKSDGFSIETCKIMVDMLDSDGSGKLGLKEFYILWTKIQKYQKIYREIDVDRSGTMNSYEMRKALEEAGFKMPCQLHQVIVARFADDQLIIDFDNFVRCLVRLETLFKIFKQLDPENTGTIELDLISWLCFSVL
T3 sequence (P04632 1-268 partner): T1 sequence (P04632 1-268 partner)
Description: Biochemical inhibition of calpain 2, continuous fluorescence (FRET substrate) assay. The note with it: mean; read-out: Human Calpain 2/NS1 1C50 [sic] (nM)_MEAN. Here is the method:
as §1, §2

Structures are written as SMILES. Where only a bound is given, the exact number is not on record here.

Turning to `NC(=O)C(=O)[C@H](Cc1ccccc1)NC(=O)c1c(Cl)cccc1Cl` [Compound 1, (S)—N-(4-AMINO-3,4-DIOXO-1-PHENYLBUTAN-2-YL)-2,6-DICHLOROBENZAMIDE], the IC50 in assay [1] was more than 25 µM; at Human Calpain 1/NS1 it was less than 3000 nM; on Human Calpain 9/NS1 it was less than 3000 nM; in assay [2], 10 to 25 µM; on Human Calpain 2/NS1 it was less than 3000 nM.
As for `NC(=O)C(=O)[C@H](Cc1ccccc1)NC(=O)c1c(F)cc(F)cc1F` [Compound 3, (S)—N-(4-AMINO-3,4-DIOXO-1-PHENYLBUTAN-2-YL)-2,4,6-TRIFLUOROBENZAMIDE], the IC50 in assay [1] is 10 to 25 µM; at Human Calpain 1/NS1 it was less than 3000 nM; on Human Calpain 9/NS1, less than 3000 nM; in assay [2] it was more than 25 µM; on Human Calpain 2/NS1 it was less than 3000 nM.
With `NC(=O)C(=O)C(Cc1ccccc1)NC(=O)C1c2ccccc2Oc2ccccc21` (centres unmarked) [Compound 5, N-(4-AMINO-3,4-DIOXO-1-PHENYLBUTAN-2-YL)-9H-XANTHENE-9-CARBOXAMIDE], the IC50 on Human Calpain 1/NS1 was less than 3000 nM; on Human Calpain 9/NS1, less than 3000 nM; in assay [2] it was more than 25 µM; on Human Calpain 2/NS1, less than 3000 nM.
Regarding `NC(=O)C(=O)C(Cc1ccccc1)NC(=O)c1cccc2c1Oc1ccccc1O2` (centres unmarked) [Compound 7, N-(4-AMINO-3,4-DIOXO-1-PHENYLBUTAN-2-YL)DIBENZO[b,e][1,4]DIOXINE-1-CARBOXAMIDE], the IC50 in assay [1] was more than 25 µM; on Human Calpain 1/NS1, less than 3000 nM; on Human Calpain 9/NS1, less than 3000 nM; in assay [2] it was 10 to 25 µM; on Human Calpain 2/NS1, less than 3000 nM.
Turning to `NC(=O)C(=O)C(Cc1ccccc1)NC(=O)c1cccc2c1oc1ccccc12` (centres unmarked) [Compound 9, N-(4-AMINO-3,4-DIOXO-1-PHENYLBUTAN-2-YL)DIBENZO[b,d]FURAN-4-CARBOXAMIDE], the IC50 in assay [1] was more than 25 µM; on Human Calpain 1/NS1, less than 3000 nM; at Human Calpain 9/NS1 it was less than 3000 nM; in assay [2], more than 25 µM; at Human Calpain 2/NS1 it was less than 3000 nM.
Consider `Cn1c2ccccc2c2c(C(=O)NC(Cc3ccccc3)C(=O)C(N)=O)cccc21` (centres unmarked) [Compound 11, N-(4-AMINO-3,4-DIOXO-1-PHENYLBUTAN-2-YL)-9-METHYL-9H-CARBAZOLE-4-CARBOXAMIDE], for which the IC50 in assay [1] is less than 10 µM; at Human Calpain 1/NS1 it was less than 3000 nM; at Human Calpain 9/NS1, less than 3000 nM; in assay [2], 10 to 25 µM; at Human Calpain 2/NS1 it was less than 3000 nM.
Turning to `Cn1c2ccccc2c2cccc(C(=O)NC(Cc3ccccc3)C(=O)C(N)=O)c21` (centres unmarked) [Compound 12], the IC50 in assay [1] was less than 10 µM; on Human Calpain 1/NS1 it was less than 3000 nM; on Human Calpain 9/NS1 it was less than 3000 nM; in assay [2], more than 25 µM; at Human Calpain 2/NS1 it was less than 3000 nM.
With `NC(=O)C(=O)C(Cc1ccccc1)NC(=O)c1c(Cl)ccc2ccccc12` (centres unmarked) [Compound 13, N-(4-AMINO-3,4-DIOXO-1-PHENYLBUTAN-2-YL)-2-CHLORO-1-NAPHTHAMIDE], the IC50 in assay [1] was 10 to 25 µM; at Human Calpain 1/NS1, less than 3000 nM; at Human Calpain 9/NS1, less than 3000 nM; in assay [2], 10 to 25 µM; at Human Calpain 2/NS1 it was less than 3000 nM.
Turning to `NC(=O)C(=O)[C@H](Cc1ccccc1)NC(=O)c1c(Cl)cccc1Br` [Compound 14, (S)—N-(4-AMINO-3,4-DIOXO-1-PHENYLBUTAN-2-YL)-2-BROMO-6-CHLOROBENZAMIDE], the IC50 in assay [1] was less than 10 µM; at Human Calpain 1/NS1, less than 3000 nM; on Human Calpain 9/NS1, less than 3000 nM; in assay [2], 10 to 25 µM; at Human Calpain 2/NS1, less than 3000 nM.
Turning to `NC(=O)C(=O)C(Cc1ccccc1)NC(=O)c1ccc2c(c1)OCO2` (centres unmarked) [Compound 24, N-(4-AMINO-3,4-DIOXO-1-PHENYLBUTAN-2-YL)BENZO[d][1,3]DIOXOLE-5-CARBOXAMIDE], the IC50 was 3000 to 10000 nM on Human Calpain 1/NS1, less than 3000 nM at Human Calpain 9/NS1, more than 25 µM in assay [2] and less than 3000 nM on Human Calpain 2/NS1.
On to `NC(=O)C(=O)[C@H](Cc1ccccc1)NC(=O)c1ccccc1Br` [Compound 36, (S)—N-(4-AMINO-3,4-DIOXO-1-PHENYLBUTAN-2-YL)-2-BROMOBENZAMIDE], for which the IC50 was less than 10 µM in assay [1], less than 3000 nM at Human Calpain 1/NS1, less than 3000 nM on Human Calpain 9/NS1 and less than 3000 nM at Human Calpain 2/NS1.
As for `O=CC(Cc1ccccc1)NC(=O)c1c(Cl)cccc1Br` (centres unmarked) [Compound 41, 2-BROMO-6-CHLORO-N-(1-OXO-3-PHENYLPROPAN-2-YL)BENZAMIDE], the IC50 on Human Calpain 1/NS1 was 3000 to 10000 nM; on Human Calpain 9/NS1, less than 3000 nM; in assay [2], 10 to 25 µM; at Human Calpain 2/NS1 it was less than 3000 nM.
